# Results published in patent US20050261171A1, “Combination cancer therapy” (Pharmacyclics, Inc., priority 2001, published 2005).
# Read-outs that look alike come from different tables or passages of the source.
# What was measured:
# [1] = system: murine Lewis lung carcinoma cell line (LLC1); assay: BCNU and MGd, tumor regrowth delay in subcutaneous Lewis lung carcinoma model; assay type: in vivo, Female C57BL mice; details: control group 11.45 days
# [2] = system: murine Lewis lung carcinoma cell line (LLC1); assay: Taxol and MGd, tumor regrowth delay in subcutaneous Lewis lung carcinoma model; assay type: in vivo, Female C57BL mice; details: control group 11.40 days
# [3] = system: murine Lewis lung cancer; assay: Carboplatin and MGd, murine Lewis lung cancer in C57 mice; assay type: in vivo; details: Group #2: 20 μmol/kg MGd on day 7 post tumor inoculation; control group 12.14 days
# [4] = system: murine Lewis lung carcinoma cell line (LLC1); assay type: in vivo, Female C57BL mice; details: control group 12.11 days
compound,measurement,setting,value
"O=NN(CCCl)C(=O)NCCCl [BCNU, carmustine, reference compound]",median survival,"[1]; Group #3: 15 mg/kg BCNU ip on days 10, 12 and 14",10.46 days
"CC(=O)O[C@H]1C(=O)[C@@]2(C)[C@H]([C@H](OC(=O)c3ccccc3)[C@]3(O)C[C@H](OC(=O)[C@H](O)[C@@H](NC(=O)c4ccccc4)c4ccccc4)C(C)=C1C3(C)C)[C@]1(OC(C)=O)CO[C@@H]1C[C@@H]2O [Taxol, paclitaxel, reference compound]",median survival,"[2]; Group #3: 24 μmol/kg of Taxol iv on days 7, 9, 11 and 13",11.55 days
Motexafin Gadolinium [MGd],median survival,"[2]; Group #2: 20 μmol/kg MGd iv on days 7, 9, 11 and 13",12.90 days
same,median survival,[3],12.42 days
same,median survival,"[1]; Group #2: 20 μmol/kg MGd iv on days 10, 12 and 14",10.04 days
same,median survival,[4]; Group #2: 20 μmol/kg MGd iv thrice at three day intervals after tumor established,13.07 days
bleomycin [reference compound],median survival,[4]; Group #3: 10 units/kg bleomycin iv thrice at three day intervals after tumor established,14.73 days
